Data from paper PMC7076388 (Pharmaceutics, 2020).
pIC50: −log10 of the molar value. “Also recorded” adds a separate entry of the source.

Assays:
[1] = molecular target: T1, 26S proteasome isolated from AGS cells (Homo sapiens, UniProt P28074); assay: 26S proteasome inhibition; format: biochemical
T1 construct: purified 26S proteasome isolated from AGS cells; endogenous in cells; host or cells: AGS cells
T1 sequence (P28074 60-263): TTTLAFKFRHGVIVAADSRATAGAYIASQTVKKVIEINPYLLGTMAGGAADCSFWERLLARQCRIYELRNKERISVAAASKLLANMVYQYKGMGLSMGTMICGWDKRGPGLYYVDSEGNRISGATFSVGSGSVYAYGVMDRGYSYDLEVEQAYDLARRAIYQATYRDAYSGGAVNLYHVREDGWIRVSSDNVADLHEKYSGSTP
Procedure: This assay was carried out in the same way as described for 20S proteasome (vide supra), except using purified 26S proteasome isolated from AGS cells. To extract 26S proteasome from cells, they were centrifuged at 1300 rpm for 3 min at 37 °C and the supernatant was rejected. The pellet was then resuspended in 5 mL of HBSS. After this step, the cells were centrifuged again under the conditions referred to above and the supernatant was rejected. Then, 1 mL of cell lysis buffer was added, before being placed in ice (4 °C) for 30 min. Subsequently, the mixture was centrifuged at 14,000 g during 30 min at 4 °C. The pellet was rejected, and the supernatant was kept in an Eppendorf tube. The quantity of protein isolated was determined by Bradford Assay.
A stock solution of bovine serum albumin (BSA) (1.0 mg/mL) was prepared in H2O. From the stock solution, six concentrations were prepared: 5%, 4%, 3%, 2%, 1% and 0% stock solution in H2O. An aliquot of each sample (40 µL) was added to a solution of the Bradford reagent (200 µL). After 5 min, the absorbance was measured at 595 nm and the calibration curve was plotted (correlation > 0.99). […] After 5 min, the absorbance was measured at 595 nm and the result was compared with the correlation curve in order to calculate the concentration of protein.

[2] = molecular target: T2, LOX from glycine max (soybean) (Glycine max, UniProt P08170); set-up: method as in PMID 30987203; conditions: 100 µM; cited from earlier work
T2 construct: purchased Sigma-Aldrich
T2 sequence (P08170 1-839): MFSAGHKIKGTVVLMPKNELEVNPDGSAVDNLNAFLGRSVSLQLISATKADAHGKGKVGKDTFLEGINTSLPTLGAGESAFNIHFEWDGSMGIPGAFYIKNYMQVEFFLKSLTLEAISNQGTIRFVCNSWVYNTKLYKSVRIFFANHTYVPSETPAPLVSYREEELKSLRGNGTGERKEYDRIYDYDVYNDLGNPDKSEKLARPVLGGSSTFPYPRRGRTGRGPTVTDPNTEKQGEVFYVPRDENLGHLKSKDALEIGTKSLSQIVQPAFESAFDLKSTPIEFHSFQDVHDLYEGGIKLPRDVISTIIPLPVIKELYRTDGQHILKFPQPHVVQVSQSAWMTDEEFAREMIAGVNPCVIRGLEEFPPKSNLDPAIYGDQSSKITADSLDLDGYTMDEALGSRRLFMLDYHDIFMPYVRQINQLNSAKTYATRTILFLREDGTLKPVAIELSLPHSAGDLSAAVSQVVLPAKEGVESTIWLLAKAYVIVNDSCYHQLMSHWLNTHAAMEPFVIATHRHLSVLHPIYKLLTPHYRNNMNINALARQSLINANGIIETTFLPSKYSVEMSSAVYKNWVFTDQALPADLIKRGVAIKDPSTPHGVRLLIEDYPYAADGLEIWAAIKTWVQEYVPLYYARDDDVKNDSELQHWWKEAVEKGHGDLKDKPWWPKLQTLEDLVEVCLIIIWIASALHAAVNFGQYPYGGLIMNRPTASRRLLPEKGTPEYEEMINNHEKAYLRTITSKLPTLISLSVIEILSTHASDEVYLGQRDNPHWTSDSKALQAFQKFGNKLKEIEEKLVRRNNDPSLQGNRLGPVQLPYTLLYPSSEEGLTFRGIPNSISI

[3] = molecular target: T2, LOX from glycine max (soybean); assay: Lipoxygenase glycine max (soybean) assay; format: biochemical; conditions: dose-response assay; read-out: IC50 for LOX inhibition
Procedure: The inhibitory effect on LOX was assessed in 96-well plates, using a modified version of a previously reported procedure from Pereira et al.. […] After 5 min pre-incubation at room temperature, the reaction was started by addition of linoleic acid substrate (20 µL of a 4.18 mM solution in ethanol). The reaction was monitored at 234 nm using a multiplate reader (Multiskan Thermo Fisher Scientific Oy, Vantaa, Finland), for 3 min.

COc1ccc2cc(C(C)C(=O)NC(Cc3ccc(O)cc3)C(=O)NC(=Cc3ccccc3)C(=O)O)ccc2c1 [Compound 1, Npx-L-Tyr-Z-ΔPhe-OH]
26S proteasome activity versus control ([1]; 100 µM): 8.1% | pIC50 ([1]; dose-response assay): 4.73 | LOX inhibition at single concentration [2]: significantly inhibit the LOX enzyme to a similar level to naproxen; also recorded: high levels of lipoxygenase (LOX) inhibition | pIC50 [3]: 4.27
